Patent US12459957B2, “Therapeutic compounds and methods” (GENENTECH, INC., priority 2021, dated 2025)
“Also recorded” adds a separate entry of the source.

Key:
[1] = system: neutrophils (PMA-stimulated NETosis); test: Quantification of NETosis using SYTOX Green; format: cell-based, human; details: for NETosis (qualitative): polymorphonuclear leukocytes, FIG. 1
Outline: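 SYTOX Green-stained neutrophils imaged in phase and fluorescence; total cells counted from phase images, NETosis assigned by DNA area against a per-experiment training set. Controls: unstimulated and PMA-stimulated pyocyanin-inhibited (negative), PMA-stimulated (positive); value is NET-forming cells as % of total.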

[2] = system: neutrophils (PMA-stimulated ROS); test: ROS detection assay (ROS-Glo, H2O2); format: cell-based; details: Neutrophil; human neutrophils, 30 min preincubation, 50 nM PMA for 30 min
Experimental: ROS were measured in neutrophils using the ROS-Glo bioluminescent assay (Promega) for the direct detection of H2O2. Neutrophils were isolated from fresh human blood using a biphasic Histopaque gradient as described here. Cells (100 uL per well) were plated in 96-well plates at a density of 200,000 cells/mL in high glucose DMEM medium. Cells were preincubated with either DMSO vehicle or compounds (10-point dilution curve starting at 2 uM with 3-fold serial dilution) for 30 min, and then stimulated with 50 nM PMA for 30 min. Luminescence, after the addition of H2O2 substrate solution for 20 min, and then ROS-Glo detection solution for 20 min, was recorded on a luminescence plate reader. The fifty percent inhibitory concentration (IC50) was determined with GraphPad Prism by plotting the assay output (RLU) versus the logarithm of the compound concentration using a non-linear sigmoid with variable slope algorithm with the default curve-fitting parameters in the Prism software.

[3] = molecular target: T1, phosphofructokinase-1 liver type (PFKL) (Homo sapiens, UniProt P17858); test: PFKL activation; format: biochemical
T1 sequence (P17858 1-780): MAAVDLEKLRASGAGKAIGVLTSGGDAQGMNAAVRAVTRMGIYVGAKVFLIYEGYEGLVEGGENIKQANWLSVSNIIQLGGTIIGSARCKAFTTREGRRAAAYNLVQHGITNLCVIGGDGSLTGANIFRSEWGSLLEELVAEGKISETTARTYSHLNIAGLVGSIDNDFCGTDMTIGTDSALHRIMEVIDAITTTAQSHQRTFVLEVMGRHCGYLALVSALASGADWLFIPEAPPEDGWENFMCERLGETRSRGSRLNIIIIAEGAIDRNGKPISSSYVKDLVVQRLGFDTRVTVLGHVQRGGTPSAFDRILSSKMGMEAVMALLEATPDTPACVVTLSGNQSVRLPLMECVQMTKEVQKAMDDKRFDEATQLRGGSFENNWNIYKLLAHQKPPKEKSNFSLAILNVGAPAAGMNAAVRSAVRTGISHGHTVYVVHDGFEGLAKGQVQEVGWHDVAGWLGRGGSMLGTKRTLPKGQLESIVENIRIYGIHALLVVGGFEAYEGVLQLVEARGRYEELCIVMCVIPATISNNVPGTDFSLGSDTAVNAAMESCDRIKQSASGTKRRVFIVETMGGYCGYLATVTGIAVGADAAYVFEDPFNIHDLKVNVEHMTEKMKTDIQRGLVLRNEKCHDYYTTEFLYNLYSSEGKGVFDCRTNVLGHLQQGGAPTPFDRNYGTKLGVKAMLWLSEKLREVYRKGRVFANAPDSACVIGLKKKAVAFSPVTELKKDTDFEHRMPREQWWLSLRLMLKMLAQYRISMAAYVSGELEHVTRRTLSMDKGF

[4] = molecular target: T2, phosphofructokinase-1 platelet type (PFKP) (Homo sapiens, UniProt Q01813); test: PFKP activation; format: biochemical
T2 sequence (Q01813 1-784): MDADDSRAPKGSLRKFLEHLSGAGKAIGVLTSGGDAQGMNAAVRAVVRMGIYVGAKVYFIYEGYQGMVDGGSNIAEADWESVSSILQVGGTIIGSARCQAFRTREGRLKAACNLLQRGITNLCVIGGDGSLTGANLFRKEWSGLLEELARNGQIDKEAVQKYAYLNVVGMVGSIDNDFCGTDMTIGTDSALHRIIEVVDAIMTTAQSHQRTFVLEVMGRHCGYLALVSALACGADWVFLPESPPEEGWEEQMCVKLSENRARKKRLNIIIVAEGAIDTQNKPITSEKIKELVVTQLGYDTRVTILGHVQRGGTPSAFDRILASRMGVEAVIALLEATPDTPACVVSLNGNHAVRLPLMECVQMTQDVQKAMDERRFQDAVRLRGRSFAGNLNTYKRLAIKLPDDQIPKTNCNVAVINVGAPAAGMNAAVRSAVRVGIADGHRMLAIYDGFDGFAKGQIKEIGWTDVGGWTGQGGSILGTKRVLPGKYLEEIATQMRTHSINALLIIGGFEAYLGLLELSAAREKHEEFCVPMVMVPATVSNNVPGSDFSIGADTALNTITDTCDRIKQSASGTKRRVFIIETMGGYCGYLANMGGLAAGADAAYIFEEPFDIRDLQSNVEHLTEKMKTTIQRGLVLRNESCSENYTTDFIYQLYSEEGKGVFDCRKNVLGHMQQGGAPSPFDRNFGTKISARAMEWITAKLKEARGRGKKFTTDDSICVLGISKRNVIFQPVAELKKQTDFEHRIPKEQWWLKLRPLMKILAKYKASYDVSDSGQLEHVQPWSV

[5] = molecular target: T3, phosphofructokinase-1 muscle type (PFKM) (Homo sapiens, UniProt P08237); test: PFKM activation; format: biochemical
T3 sequence (P08237 1-780): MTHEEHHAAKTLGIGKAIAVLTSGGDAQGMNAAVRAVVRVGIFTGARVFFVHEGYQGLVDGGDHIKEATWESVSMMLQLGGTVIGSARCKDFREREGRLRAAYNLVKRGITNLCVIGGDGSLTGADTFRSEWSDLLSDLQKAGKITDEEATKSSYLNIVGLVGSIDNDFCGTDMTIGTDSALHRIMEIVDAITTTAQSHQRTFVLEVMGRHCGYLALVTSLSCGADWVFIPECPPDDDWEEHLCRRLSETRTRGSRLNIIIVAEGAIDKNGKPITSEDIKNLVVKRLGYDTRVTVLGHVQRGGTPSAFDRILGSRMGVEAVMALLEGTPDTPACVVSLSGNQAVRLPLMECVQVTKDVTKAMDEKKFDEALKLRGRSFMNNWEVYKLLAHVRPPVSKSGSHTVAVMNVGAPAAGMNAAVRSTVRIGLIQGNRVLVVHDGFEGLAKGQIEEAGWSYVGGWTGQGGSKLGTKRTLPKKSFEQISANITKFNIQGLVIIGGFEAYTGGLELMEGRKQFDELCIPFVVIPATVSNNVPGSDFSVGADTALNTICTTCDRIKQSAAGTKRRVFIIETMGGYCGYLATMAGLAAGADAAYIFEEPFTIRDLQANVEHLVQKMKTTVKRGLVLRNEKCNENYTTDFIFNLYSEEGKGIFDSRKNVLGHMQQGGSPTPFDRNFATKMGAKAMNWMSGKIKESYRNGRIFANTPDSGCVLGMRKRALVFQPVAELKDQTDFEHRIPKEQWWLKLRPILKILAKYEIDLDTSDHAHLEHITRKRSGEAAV

[6] = system: NOX2-dependent oxidative burst in neutrophils; test: NOX2-dependent oxidative burst in neutrophils; format: cell-based
[7] = system: GSDMD-dependent pyroptosis in primary human monocytes and human monocytic THP-1 cells; test: GSDMD-dependent pyroptosis, LDH release; format: cell-based; details: induced by nigericin, cytoplasmic LPS or cytoplasmic poly(dA-dT)
Experimental: (§1) FIG. 1. […] LDH (A) or IL-1β (B) released from primary human monocytes. Bars show the mean±s.e.m. of monocytes from 3 donors. (C) Western blots of monocytes at 1 h after electroporation with LPS. FL, full length GSDMD. NT, N-terminal fragment of GSDMD. Results representative of 3 independent experiments. (D) Coomassie blue staining of recombinant GSDMD. Results representative of 3 independent experiments. (E) TR-FRET assay measuring Europium-labeled biotin released from liposomes exposed to caspase-4 and GSDMD. Symbols indicate the mean±s.d. of 3 independent experiments. (F-G) Percentage of polymorphonuclear leukocytes (PMNs) undergoing NETosis induced by PMA (F) or the stimuli indicated (G). Data are the mean±s.d. of cells from 3 donors. (H) ROS production by PMNs. Bars show the mean±s.e.m. of PMNs from 3 donors. P-values (Two-way ANOVA, means compared to medium alone) are shown if P<0.05. (I) Percentage of PMNs undergoing PMA-induced NETosis. The x-axis indicates when NA-11 was added relative to the addition of PMA (t=0). Bars show the mean±s.e.m. of PMNs from 3 donors. P-values (one-way ANOVA, means compared to medium alone) are shown if P<0.05.
(§2) LDC7559 was reported to block the pore-forming activity of GSDMD (Sollberger et al., 2018). The ability to inhibit GSDMD-dependent pyroptosis in primary human monocytes and human monocytic THP-1 cells was tested (FIG. 1A-C).

[8] = system: GSDMD-dependent release of interleukin-1β (IL-1β) from monocytes; test: GSDMD-dependent release of IL-1β from monocytes; format: cell-based, human; details: in response to nigericin or poly(dA-dT)
Experimental: as §1, §2

[9] = molecular target: T4, GSDMD (Homo sapiens, UniProt P57764); test: Western blot of LPS-induced cleavage of GSDMD in monocytes; format: cell-based; details: monocytes after electroporation with LPS
T4 construct: Western blots of monocytes at 1 h after electroporation with LPS; endogenous in cells; host or cells: primary human monocytes
T4 sequence (P57764 1-484): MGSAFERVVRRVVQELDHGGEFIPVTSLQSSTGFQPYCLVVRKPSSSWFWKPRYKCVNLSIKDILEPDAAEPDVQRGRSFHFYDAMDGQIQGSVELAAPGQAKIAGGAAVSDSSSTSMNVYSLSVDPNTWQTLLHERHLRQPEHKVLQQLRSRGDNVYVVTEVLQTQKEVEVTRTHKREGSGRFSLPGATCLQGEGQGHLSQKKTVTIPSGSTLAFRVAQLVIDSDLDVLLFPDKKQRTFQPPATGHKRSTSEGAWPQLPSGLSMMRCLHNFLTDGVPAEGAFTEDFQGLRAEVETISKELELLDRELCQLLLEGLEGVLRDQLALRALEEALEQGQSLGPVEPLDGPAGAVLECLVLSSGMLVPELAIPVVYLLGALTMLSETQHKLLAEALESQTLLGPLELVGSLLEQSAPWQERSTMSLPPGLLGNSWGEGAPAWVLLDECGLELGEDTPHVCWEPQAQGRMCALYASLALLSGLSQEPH
Experimental: as §1, §2

[10] = molecular target: T5, recombinant GSDMD / caspase-4 (Homo sapiens, UniProt P57764); test: Cleavage of recombinant GSDMD by caspase-4; format: biochemical
T5 sequence (P57764 1-484): T4 sequence (P57764 1-484)
Experimental: as §1, §2

[11] = molecular target: T6, GSDMD pore-forming fragment (Homo sapiens, UniProt P57764); test: TR-FRET liposome permeabilization by GSDMD pore-forming fragment; format: biochemical; details: liposomes exposed to caspase-4 and GSDMD
T6 sequence (P57764 1-275 limits assumed): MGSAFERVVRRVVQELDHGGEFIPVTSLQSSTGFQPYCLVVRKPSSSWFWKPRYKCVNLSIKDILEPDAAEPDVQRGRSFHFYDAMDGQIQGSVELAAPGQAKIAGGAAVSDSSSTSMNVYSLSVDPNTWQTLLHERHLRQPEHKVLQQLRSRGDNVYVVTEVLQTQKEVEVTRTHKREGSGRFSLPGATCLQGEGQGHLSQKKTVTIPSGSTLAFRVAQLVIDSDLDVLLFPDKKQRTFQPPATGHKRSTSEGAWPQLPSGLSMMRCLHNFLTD
Experimental: as §1, §2

`CC(=O)Nc1ccc2c(c1)OCc1cc(-c3ccccc3C#CCCCO)nn1C2` [Example 6, N-(2-(2-(5-hydroxypent-1-yn-1-yl)phenyl)-4H,10H-benzo[f]pyrazolo[5,1-c][1,4]oxazepin-7-yl)acetamide] was tested, and the IC50 ([1]; Homo sapiens, Neutrophil, NETosis, SYTOX Green-stained neutrophils, PMA-stimulated) was 4 ± 0.5 nM, the “5 uM (% NETosis)” value ([1]; compound at 5 uM, NET-forming cells as percentage of total cells, vehicle 79.66, untreated 14.54) was 58.67% and the “NETosis (qualitative)” value [1] was “inhibit NETosis”. For the same compound, the IC50 [2] was 26 nM, the “agonism/activation of PFKL” value [3] was “activating” and the “agonism of PFKP” value [4] was “failed to agonize”. For the same compound, the “agonism of PFKM” value [5] was “failed to agonize” and the NOX2-dependent oxidative burst [6] was “inhibit”.

For `COc1ccccc1-c1cc2n(n1)Cc1ccc(NC(C)=O)cc1OC2` [LDC7559, N-(2-(2-methoxyphenyl)-4H,10H-benzo[f]pyrazolo[5,1-c][1,4]oxazepin-7-yl)acetamide], the “NETosis (qualitative)” value [1] was “inhibit NETosis”, the “GSDMD-dependent pyroptosis (LDH release)” value [7] was “did not alter” and the “GSDMD-dependent release of IL-1β” value [8] was “occurred normally”. For the same compound, the “LPS-induced cleavage of GSDMD (Western blotting)” value [9] was “did not prevent”, the “cleavage of recombinant GSDMD by caspase-4” value [10] was “did not inhibit” and the “liposome permeabilization by GSDMD pore-forming fragment” value [11] was “Nor did it prevent”. The “agonism/activation of PFKL” value [3] was “activating; also recorded: agonize” and the NOX2-dependent oxidative burst [6] was “inhibit; also recorded: suppress”.
